Measurements: the NIST ThermoML archive (doi:10.1021/acs.jced.8b00403)
± gives the expanded uncertainty stated by the source.

Experiment: refractive index (Na D-line) (dimensionless); wn = mass fraction of the nth substance listed
Settings: 101.33 kPa, Liquid, Standard Abbe refractometry

CC(O)CO (configuration not stated) [1,2-propanediol] + O
refractive index (278.15 K, w1 = 0.0988): 1.3458 ± 0.001
refractive index (278.15 K, w1 = 0.198): 1.3578 ± 0.001
refractive index (278.15 K, w1 = 0.3312): 1.374 ± 0.001
refractive index (278.15 K, w1 = 0.5005): 1.3946 ± 0.001
refractive index (278.15 K, w1 = 0.672): 1.4112 ± 0.001
refractive index (278.15 K, w1 = 0.8044): 1.4231 ± 0.001
refractive index (278.15 K, w1 = 0.9481): 1.4343 ± 0.001
refractive index (278.15 K, w1 = 1): 1.438 ± 0.001
refractive index (283.15 K, w1 = 0.0988): 1.3454 ± 0.001
refractive index (283.15 K, w1 = 0.198): 1.3571 ± 0.001
refractive index (283.15 K, w1 = 0.3312): 1.373 ± 0.001
refractive index (283.15 K, w1 = 0.5005): 1.3932 ± 0.001
refractive index (283.15 K, w1 = 0.672): 1.4098 ± 0.001
refractive index (283.15 K, w1 = 0.8044): 1.4216 ± 0.001
refractive index (283.15 K, w1 = 0.9481): 1.4328 ± 0.001
refractive index (283.15 K, w1 = 1): 1.4364 ± 0.001
refractive index (288.15 K, w1 = 0.0988): 1.3449 ± 0.001
refractive index (288.15 K, w1 = 0.198): 1.3564 ± 0.001
refractive index (288.15 K, w1 = 0.3312): 1.372 ± 0.001
refractive index (288.15 K, w1 = 0.5005): 1.3918 ± 0.001
refractive index (288.15 K, w1 = 0.672): 1.4084 ± 0.001
refractive index (288.15 K, w1 = 0.8044): 1.42 ± 0.001
refractive index (288.15 K, w1 = 0.9481): 1.4312 ± 0.001
refractive index (288.15 K, w1 = 1): 1.4348 ± 0.001
refractive index (293.15 K, w1 = 0.0988): 1.3444 ± 0.001
refractive index (293.15 K, w1 = 0.198): 1.3557 ± 0.001
refractive index (293.15 K, w1 = 0.3312): 1.371 ± 0.001
refractive index (293.15 K, w1 = 0.5005): 1.3903 ± 0.001
refractive index (293.15 K, w1 = 0.672): 1.4069 ± 0.001
refractive index (293.15 K, w1 = 0.8044): 1.4184 ± 0.001
refractive index (293.15 K, w1 = 0.9481): 1.4296 ± 0.001
refractive index (293.15 K, w1 = 1): 1.4332 ± 0.001
refractive index (298.15 K, w1 = 0.0988): 1.3432 ± 0.001
refractive index (298.15 K, w1 = 0.198): 1.355 ± 0.001
refractive index (298.15 K, w1 = 0.3312): 1.3699 ± 0.001
refractive index (298.15 K, w1 = 0.5005): 1.3889 ± 0.001
refractive index (298.15 K, w1 = 0.672): 1.4054 ± 0.001
refractive index (298.15 K, w1 = 0.8044): 1.4168 ± 0.001
refractive index (298.15 K, w1 = 0.9481): 1.428 ± 0.001
refractive index (298.15 K, w1 = 1): 1.4315 ± 0.001
refractive index (303.15 K, w1 = 0.0988): 1.3432 ± 0.001
refractive index (303.15 K, w1 = 0.198): 1.3542 ± 0.001
refractive index (303.15 K, w1 = 0.3312): 1.3689 ± 0.001
refractive index (303.15 K, w1 = 0.5005): 1.3874 ± 0.001
refractive index (303.15 K, w1 = 0.672): 1.4039 ± 0.001
refractive index (303.15 K, w1 = 0.8044): 1.415 ± 0.001
refractive index (303.15 K, w1 = 0.9481): 1.4264 ± 0.001
refractive index (303.15 K, w1 = 1): 1.4299 ± 0.001
refractive index (308.15 K, w1 = 0.0988): 1.3424 ± 0.001
refractive index (308.15 K, w1 = 0.198): 1.3534 ± 0.001
refractive index (308.15 K, w1 = 0.3312): 1.368 ± 0.001
refractive index (308.15 K, w1 = 0.5005): 1.3862 ± 0.001
refractive index (308.15 K, w1 = 0.672): 1.4024 ± 0.001
refractive index (308.15 K, w1 = 0.8044): 1.4135 ± 0.001
refractive index (308.15 K, w1 = 0.9481): 1.4248 ± 0.001
refractive index (308.15 K, w1 = 1): 1.4281 ± 0.001
refractive index (313.15 K, w1 = 0.0988): 1.3416 ± 0.001
refractive index (313.15 K, w1 = 0.198): 1.3534 ± 0.001
refractive index (313.15 K, w1 = 0.3312): 1.3671 ± 0.001
refractive index (313.15 K, w1 = 0.5005): 1.3851 ± 0.001
refractive index (313.15 K, w1 = 0.672): 1.4008 ± 0.001
refractive index (313.15 K, w1 = 0.8044): 1.4119 ± 0.001
refractive index (313.15 K, w1 = 0.9481): 1.4231 ± 0.001
refractive index (313.15 K, w1 = 1): 1.4264 ± 0.001
refractive index (318.15 K, w1 = 0.0988): 1.3408 ± 0.001
refractive index (318.15 K, w1 = 0.198): 1.3516 ± 0.001
refractive index (318.15 K, w1 = 0.3312): 1.366 ± 0.001
refractive index (318.15 K, w1 = 0.5005): 1.384 ± 0.001
refractive index (318.15 K, w1 = 0.672): 1.3994 ± 0.001
refractive index (318.15 K, w1 = 0.8044): 1.4103 ± 0.001
refractive index (318.15 K, w1 = 0.9481): 1.4214 ± 0.001
refractive index (318.15 K, w1 = 1): 1.4247 ± 0.001

OCCCO [propan-1,3-diol] + O
refractive index (278.15 K, w1 = 0.1113): 1.3466 ± 0.001
refractive index (278.15 K, w1 = 0.2226): 1.3599 ± 0.001
refractive index (278.15 K, w1 = 0.334): 1.374 ± 0.001
refractive index (278.15 K, w1 = 0.4453): 1.3866 ± 0.001
refractive index (278.15 K, w1 = 0.501): 1.3931 ± 0.001
refractive index (278.15 K, w1 = 0.6123): 1.4066 ± 0.001
refractive index (278.15 K, w1 = 0.7236): 1.4181 ± 0.001
refractive index (278.15 K, w1 = 0.8349): 1.4289 ± 0.001
refractive index (278.15 K, w1 = 0.9277): 1.4371 ± 0.001
refractive index (278.15 K, w1 = 1): 1.4436 ± 0.001
refractive index (283.15 K, w1 = 0.1113): 1.3462 ± 0.001
refractive index (283.15 K, w1 = 0.2226): 1.3592 ± 0.001
refractive index (283.15 K, w1 = 0.334): 1.3729 ± 0.001
refractive index (283.15 K, w1 = 0.4453): 1.3856 ± 0.001
refractive index (283.15 K, w1 = 0.501): 1.3921 ± 0.001
refractive index (283.15 K, w1 = 0.6123): 1.4055 ± 0.001
refractive index (283.15 K, w1 = 0.7236): 1.4169 ± 0.001
refractive index (283.15 K, w1 = 0.8349): 1.4276 ± 0.001
refractive index (283.15 K, w1 = 0.9277): 1.4358 ± 0.001
refractive index (283.15 K, w1 = 1): 1.4423 ± 0.001
refractive index (288.15 K, w1 = 0.1113): 1.3457 ± 0.001
refractive index (288.15 K, w1 = 0.2226): 1.3586 ± 0.001
refractive index (288.15 K, w1 = 0.334): 1.3719 ± 0.001
refractive index (288.15 K, w1 = 0.4453): 1.3845 ± 0.001
refractive index (288.15 K, w1 = 0.501): 1.391 ± 0.001
refractive index (288.15 K, w1 = 0.6123): 1.4041 ± 0.001
refractive index (288.15 K, w1 = 0.7236): 1.4157 ± 0.001
refractive index (288.15 K, w1 = 0.8349): 1.4263 ± 0.001
refractive index (288.15 K, w1 = 0.9277): 1.4345 ± 0.001
refractive index (288.15 K, w1 = 1): 1.4409 ± 0.001
refractive index (293.15 K, w1 = 0.1113): 1.3452 ± 0.001
refractive index (293.15 K, w1 = 0.2226): 1.3579 ± 0.001
refractive index (293.15 K, w1 = 0.334): 1.371 ± 0.001
refractive index (293.15 K, w1 = 0.4453): 1.3835 ± 0.001
refractive index (293.15 K, w1 = 0.501): 1.3899 ± 0.001
refractive index (293.15 K, w1 = 0.6123): 1.4029 ± 0.001
refractive index (293.15 K, w1 = 0.7236): 1.4145 ± 0.001
refractive index (293.15 K, w1 = 0.8349): 1.425 ± 0.001
refractive index (293.15 K, w1 = 0.9277): 1.4332 ± 0.001
refractive index (293.15 K, w1 = 1): 1.4395 ± 0.001
refractive index (298.15 K, w1 = 0.1113): 1.3446 ± 0.001
refractive index (298.15 K, w1 = 0.2226): 1.3572 ± 0.001
refractive index (298.15 K, w1 = 0.334): 1.3702 ± 0.001
refractive index (298.15 K, w1 = 0.4453): 1.3825 ± 0.001
refractive index (298.15 K, w1 = 0.501): 1.3888 ± 0.001
refractive index (298.15 K, w1 = 0.6123): 1.4015 ± 0.001
refractive index (298.15 K, w1 = 0.7236): 1.4133 ± 0.001
refractive index (298.15 K, w1 = 0.8349): 1.4237 ± 0.001
refractive index (298.15 K, w1 = 0.9277): 1.4319 ± 0.001
refractive index (298.15 K, w1 = 1): 1.4381 ± 0.001
refractive index (303.15 K, w1 = 0.1113): 1.344 ± 0.001
refractive index (303.15 K, w1 = 0.2226): 1.3564 ± 0.001
refractive index (303.15 K, w1 = 0.334): 1.3693 ± 0.001
refractive index (303.15 K, w1 = 0.4453): 1.3815 ± 0.001
refractive index (303.15 K, w1 = 0.501): 1.3876 ± 0.001
refractive index (303.15 K, w1 = 0.6123): 1.4002 ± 0.001
refractive index (303.15 K, w1 = 0.7236): 1.4118 ± 0.001
refractive index (303.15 K, w1 = 0.8349): 1.4224 ± 0.001
refractive index (303.15 K, w1 = 0.9277): 1.4304 ± 0.001
refractive index (303.15 K, w1 = 1): 1.4368 ± 0.001
refractive index (308.15 K, w1 = 0.1113): 1.3434 ± 0.001
refractive index (308.15 K, w1 = 0.2226): 1.3558 ± 0.001
refractive index (308.15 K, w1 = 0.334): 1.3684 ± 0.001
refractive index (308.15 K, w1 = 0.4453): 1.3804 ± 0.001
refractive index (308.15 K, w1 = 0.501): 1.3865 ± 0.001
refractive index (308.15 K, w1 = 0.6123): 1.3989 ± 0.001
refractive index (308.15 K, w1 = 0.7236): 1.4103 ± 0.001
refractive index (308.15 K, w1 = 0.8349): 1.4211 ± 0.001
refractive index (308.15 K, w1 = 0.9277): 1.4289 ± 0.001
refractive index (308.15 K, w1 = 1): 1.4354 ± 0.001
refractive index (313.15 K, w1 = 0.1113): 1.3426 ± 0.001
refractive index (313.15 K, w1 = 0.2226): 1.355 ± 0.001
refractive index (313.15 K, w1 = 0.334): 1.3676 ± 0.001
refractive index (313.15 K, w1 = 0.4453): 1.3793 ± 0.001
refractive index (313.15 K, w1 = 0.501): 1.3854 ± 0.001
refractive index (313.15 K, w1 = 0.6123): 1.3977 ± 0.001
refractive index (313.15 K, w1 = 0.7236): 1.4089 ± 0.001
refractive index (313.15 K, w1 = 0.8349): 1.4197 ± 0.001
refractive index (313.15 K, w1 = 0.9277): 1.4275 ± 0.001
refractive index (313.15 K, w1 = 1): 1.434 ± 0.001
refractive index (318.15 K, w1 = 0.1113): 1.3418 ± 0.001
refractive index (318.15 K, w1 = 0.2226): 1.3541 ± 0.001
refractive index (318.15 K, w1 = 0.334): 1.3668 ± 0.001
refractive index (318.15 K, w1 = 0.4453): 1.3782 ± 0.001
refractive index (318.15 K, w1 = 0.501): 1.3845 ± 0.001
refractive index (318.15 K, w1 = 0.6123): 1.3965 ± 0.001
refractive index (318.15 K, w1 = 0.7236): 1.4075 ± 0.001
refractive index (318.15 K, w1 = 0.8349): 1.4182 ± 0.001
refractive index (318.15 K, w1 = 0.9277): 1.4261 ± 0.001
refractive index (318.15 K, w1 = 1): 1.4325 ± 0.001
